Assays:
Test in all cases: relative viability (nuclei count vs DMSO), 5 days (fraction); higher = more cells survive
AGI-6780 + Crizotinib = compound: O=C(Nc1cccc(C(F)(F)F)c1)Nc1cc(S(=O)(=O)NC2CC2)ccc1-c1ccsc1 [AGI-6780] + C[C@@H](Oc1cc(-c2cnn(C3CCNCC3)c2)cnc1N)c1c(Cl)ccc(F)c1Cl [Crizotinib] (partner 1 µM)
Summary of the method: (§1)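 Lung cancer cell lines were pin-tool dosed in 1536-well plates on the day after seeding, with either a lone drug or a fixed anchor-drug dose plus five library-drug doses (not always all listed) in √10 steps. Nuclei were counted on 4× images after 5 days. Relative viability is the ratio of treated-well to vehicle-well nuclei counts, with each value a median of duplicate plates.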

AGI-6780 + Vorinostat = compound: O=C(Nc1cccc(C(F)(F)F)c1)Nc1cc(S(=O)(=O)NC2CC2)ccc1-c1ccsc1 [AGI-6780] + O=C(CCCCCCC(=O)Nc1ccccc1)NO [Vorinostat] (partner 1 µM)
Summary of the method: as §1

AGI-6780 + AZD7762 = compound: O=C(Nc1cccc(C(F)(F)F)c1)Nc1cc(S(=O)(=O)NC2CC2)ccc1-c1ccsc1 [AGI-6780] + NC(=O)Nc1cc(-c2cccc(F)c2)sc1C(=O)N[C@H]1CCCNC1 [AZD7762] (partner 0.2 µM)
Summary of the method: as §1

AGI-6780 + Palbociclib = compound: O=C(Nc1cccc(C(F)(F)F)c1)Nc1cc(S(=O)(=O)NC2CC2)ccc1-c1ccsc1 [AGI-6780] + CC(=O)c1c(C)c2cnc(Nc3ccc(N4CCNCC4)cn3)nc2n(C2CCCC2)c1=O [Palbociclib] (partner 0.5 µM)
Summary of the method: as §1

Row | Cell Line | relative viability (AGI-6780 + Crizotinib; first compound 0.08 µM) | relative viability (AGI-6780 + Crizotinib; first compound 0.253 µM) | relative viability (AGI-6780 + Crizotinib; first compound 0.8 µM) | relative viability (AGI-6780 + Crizotinib; first compound 2.53 µM) | relative viability (AGI-6780 + Crizotinib; first compound 8 µM) | relative viability (AGI-6780 + Vorinostat; first compound 0.08 µM) | relative viability (AGI-6780 + Vorinostat; first compound 0.253 µM) | relative viability (AGI-6780 + Vorinostat; first compound 0.8 µM) | relative viability (AGI-6780 + Vorinostat; first compound 2.53 µM) | relative viability (AGI-6780 + Vorinostat; first compound 8 µM) | relative viability (AGI-6780 + AZD7762; first compound 0.08 µM) | relative viability (AGI-6780 + AZD7762; first compound 0.253 µM) | relative viability (AGI-6780 + AZD7762; first compound 0.8 µM) | relative viability (AGI-6780 + AZD7762; first compound 2.53 µM) | relative viability (AGI-6780 + AZD7762; first compound 8 µM) | relative viability (AGI-6780 + Palbociclib; first compound 0.08 µM) | relative viability (AGI-6780 + Palbociclib; first compound 0.253 µM) | relative viability (AGI-6780 + Palbociclib; first compound 0.8 µM) | relative viability (AGI-6780 + Palbociclib; first compound 2.53 µM) | relative viability (AGI-6780 + Palbociclib; first compound 8 µM)
1 | NCI-H1355 | 1.04 | 1.02 | 1.08 | 0.943 | 1.01 | 0.696 | 0.724 | 0.671 | 0.569 | 0.687 | 0.792 | 0.812 | 0.769 | 0.663 | 0.655 | 0.432 | 0.409 | 0.408 | 0.354 | 0.342
2 | NCI-H1437 | 0.974 | 0.87 | 0.922 | 0.965 | 0.916 | 0.818 | 0.856 | 0.827 | 0.751 | 0.636 | 1.11 | 1.11 | 1.28 | 1.16 | 1.17 | 0.296 | 0.365 | 0.25 | 0.347 | 0.322
3 | NCI-H1651 | 0.821 | 0.902 | 0.898 | 0.878 | 0.879 | 0.481 | 0.568 | 0.509 | 0.545 | 0.661 | 0.42 | 0.495 | 0.463 | 0.518 | 0.434 | 0.522 | 0.538 | 0.534 | 0.466 | 0.547
4 | NCI-H1666 | 1.09 | 0.897 | 1.03 | – | 1.05 | 1.01 | 0.996 | 1.04 | 0.902 | 1.06 | 0.809 | 0.977 | 0.842 | 0.926 | 0.898 | 0.605 | 0.679 | 0.616 | 0.601 | 0.601
5 | NCI-H1734 | 0.753 | 0.648 | 0.757 | – | 0.752 | 0.798 | 0.842 | 0.865 | 0.728 | 0.799 | 0.634 | 0.589 | 0.618 | 0.451 | 0.606 | 0.371 | 0.379 | 0.297 | 0.285 | 0.352
6 | NCI-H1755 | 0.878 | 0.818 | 1 | 0.79 | 0.886 | 0.751 | 0.813 | 0.646 | 0.605 | 0.8 | 0.478 | 0.417 | 0.485 | 0.419 | 0.435 | 0.452 | 0.463 | 0.426 | 0.433 | 0.419
7 | NCI-H1915 | 0.885 | 0.88 | 0.902 | 0.857 | 0.835 | 0.563 | 0.538 | 0.516 | 0.468 | 0.482 | 0.715 | 0.713 | 0.729 | 0.637 | 0.698 | 0.525 | 0.506 | 0.518 | 0.46 | 0.524
8 | NCI-H1944 | 1.16 | 1.12 | 1.25 | 0.926 | 1.02 | 0.641 | 0.523 | 0.575 | – | 0.579 | 0.538 | 0.516 | 0.515 | – | 0.55 | 0.365 | 0.331 | 0.32 | – | 0.403
9 | NCI-H1975 | 1.07 | 1.05 | 0.965 | 1.02 | 0.876 | 0.711 | 0.742 | 0.66 | 0.697 | 0.694 | 0.662 | 0.848 | 0.821 | 0.653 | 0.711 | 0.569 | 0.673 | 0.531 | 0.492 | 0.584
10 | NCI-H1993 | 0.899 | 0.913 | 0.931 | 0.84 | 1 | 1.21 | 0.811 | 0.853 | – | 0.784 | 0.681 | 1.05 | 1.01 | – | 0.928 | 0.693 | 0.649 | 0.78 | – | 0.609
11 | NCI-H2085 | 0.817 | 1.01 | 0.926 | 0.933 | 0.927 | 0.787 | 0.832 | 0.841 | 0.865 | 0.727 | 1.07 | 1 | 0.995 | 1.06 | 1 | 0.469 | 0.5 | 0.469 | 0.535 | 0.5
12 | NCI-H2087 | 0.869 | 0.922 | 0.851 | 0.86 | 0.919 | 0.546 | 0.646 | 0.719 | 0.744 | 0.868 | 1.42 | 1.43 | 1.34 | 1.64 | 1.47 | 0.244 | 0.265 | 0.221 | 0.25 | 0.245
13 | NCI-H2126 | 1.1 | 1.01 | 1.03 | 1.02 | 1.05 | 0.855 | 0.884 | 0.79 | 0.585 | 0.758 | 1.03 | 1.08 | 0.989 | 0.97 | 1.08 | 0.38 | 0.357 | 0.36 | 0.391 | 0.341
14 | NCI-H2170 | 1.28 | 1.14 | 1.36 | – | 1.24 | 0.882 | 0.996 | 0.835 | – | 0.833 | 0.803 | 0.904 | 0.987 | – | 0.827 | 0.393 | 0.421 | 0.43 | – | 0.376
15 | NCI-H2347 | 0.733 | 0.738 | 0.59 | 0.663 | 0.801 | 0.575 | 0.587 | 0.637 | 0.553 | 0.784 | 0.766 | 0.78 | 0.538 | 0.867 | 0.929 | 0.451 | 0.469 | 0.413 | 0.385 | 0.481
16 | NCI-H2405 | 0.839 | 0.801 | 0.583 | 0.827 | 0.829 | – | 0.975 | 0.943 | 0.937 | 0.954 | – | 0.725 | 0.603 | 0.752 | 0.658 | – | 0.532 | 0.45 | 0.47 | 0.526
17 | NCI-H3122 | 0.252 | 0.291 | 0.301 | 0.252 | 0.293 | 1.03 | 0.805 | 0.843 | 0.832 | 1.02 | 0.983 | 1.08 | 1 | 0.91 | 1.05 | 0.217 | 0.148 | 0.172 | 0.178 | 0.217

— the supplement of paper PMC10307832
